This is an account of results in patent publication US9963496B2, “Stable glucagon analogues and use for treatment of hypoglycaemia” (Novo Nordisk A/S, priority 2014, dated 2018).

Data set [1] has as its target T1, human glucagon receptor (Homo sapiens, UniProt P47871).
T1 construct: expressed in transfected cells; host or cells: BHK cells, clone BHK hGCGR A3*25; isolated membranes
The experiment in a line: Assay (II)(b): glucagon receptor binding, 125I-glucagon displacement on isolated membranes (SPA). The settings on record: displacement of 125I-glucagon, membranes of BHK cells with human glucagon receptor, 2 h at 25° C.; read-out: IC50 hGlucagonR. On the procedure: (b) Glucagon Receptor Binding
The purpose of this assay was to test the in vitro receptor binding activity of the glucagon derivatives of the invention. The receptor binding activity is a measure of affinity of a derivative for the human glucagon receptor.
The receptor binding of each compound to the human glucagon receptor was measured in a displacement binding assay. In this type of assay a labelled ligand (in this case 125I-glucagon) is bound to the receptor. Each derivative is added in a series of concentrations to isolated membranes containing the human glucagon receptor and displacement of the labelled ligand is monitored. The receptor binding is reported as the concentration at which half of the labelled ligand is displaced from the receptor, the IC50 value.
HME buffer consisted of 25 mM HEPES, 2 mM MgCl2 and 1 mM EDTA, and pH was adjusted to 7.4. Binding buffer consisted of 50 mM HEPES supplemented with 5 mM MgCl2, 1 mM CaCl2, 0.02% Tween 20 and 0.1% Ovalbumin, and pH was adjusted to 7.4.
The cells used in this assay (clone BHK hGCGR A3*25) were BHK cells stable transfected with an expression plasmid containing the cDNA encoding the human glucagon receptor.
The cells were grown at 5% CO2 in DMEM, 10% fetal calf serum, 1% Pen/Strep (Penicillin/Streptomycin) and 1.0 mg/mL of the selection marker G418. To make a membrane preparation the cells were grown to approximately 80% confluence. The cells were washed twice in phosphate-buffered saline and harvested. The cells were pelleted using a brief centrifugation and the cell pellet was kept on ice. The cells were lysed by adding approx. 5 mL HME buffer, mix by pipetting and snap freeze in liquid nitrogen. The cell lysate was quickly thawed and HME buffer added to 10 mL. The cell pellet was homogenised with an ULTRA-THURRAX dispersing instrument for 20-30 seconds. The homogenate was centrifuged at 20,000×G, 4° C. for 10 minutes. The pellet was resuspended (homogenised) in 1-2 mL HME buffer. The protein concentration was determined. The membranes were aliquoted and snap frozen in liquid nitrogen and stored at minus 80° C.
• 1. For the receptor binding assay 50 μl of the assay buffer was added to each well of an assay plate. • 2. Test compounds were serially diluted to give the following concentrations: 8×10 EE-7 M, 8×10 EE-8 M, 8×10 EE-9 M, 8×10 EE-10 M, 8×10 EE-11 M, 8×10 EE-12 M and 8×10 EE-13 M. Twenty-five μl were added to appropriate wells in the assay plate. • 3. Cell membrane aliquots were thawed and diluted to their working concentration. Fifty μl were added to each well in the assay plate. • 4. WGA SPA beads were suspended in assay buffer at 20 mg/mL. The suspension was diluted to 10 mg/mL in assay buffer just prior to addition to the assay plate. Fifty μl were added to each well in the assay plate. • 5. The incubation was started by adding 25 μl of 480 pM solution of [125I]-glucagon to each well of the assay plate. A 25 μl aliquot was reserved for measuring total counts/well. • 6. The assay plate was incubated for 2 h at 25° C. • 7. The assay plate was centrifuged for 10 min at 1500 rpm. • 8. The assay plate was read in a Packard TopCount NXT instrument. Calculations
The data from the TopCount instrument were transferred to GraphPad Prism software. The software averaged the values for the replicates and performed a non-linear regression.

Data set [2] is described as follows: physchem. The format is physicochemical. The settings on record: pH 7.5. In outline: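 Peptide at 250 μM in 10 mM HEPES pH 7.5 with 1 μM Thioflavin T, incubated at 37° C with 960 rpm orbital shaking. ThT fluorescence (ex 444/em 485 nm) read every 20 min; lag-time (t0−2τ) and kapp (1/τ) from curve fit. Recovery is post-assay supernatant peptide by RP-HPLC as % of initial.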

*1 amine or outer side, *2 acyl side, *3 side chain or, on linkers, in order; H or OH if unused. Where a SMILES comes first, the peptide text is derived from it. Side-chain parts run from the residue outwards. The star is where a group is joined. γGlu = O=C(O)[C@H](CCC(=O)[*:2])N[*:1]; Desaminohistidyl = O=C(CCc1c[nH]cn1)*

T1 sequence (P47871 26-477): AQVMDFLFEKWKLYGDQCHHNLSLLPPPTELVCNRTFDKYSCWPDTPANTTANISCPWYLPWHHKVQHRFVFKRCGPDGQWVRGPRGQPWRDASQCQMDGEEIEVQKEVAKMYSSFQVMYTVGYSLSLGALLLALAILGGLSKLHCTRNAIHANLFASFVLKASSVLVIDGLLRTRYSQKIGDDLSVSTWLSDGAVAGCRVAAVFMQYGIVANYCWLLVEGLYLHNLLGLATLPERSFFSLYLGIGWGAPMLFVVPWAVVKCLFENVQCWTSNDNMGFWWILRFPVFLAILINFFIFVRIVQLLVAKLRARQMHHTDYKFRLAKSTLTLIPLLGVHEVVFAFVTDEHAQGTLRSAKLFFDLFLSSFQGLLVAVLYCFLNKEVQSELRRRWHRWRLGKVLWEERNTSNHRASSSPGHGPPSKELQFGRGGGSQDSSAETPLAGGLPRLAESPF

Turning to `CC(=O)N[C@@H](CCC(=O)N[C@@H](CCC(=O)N[C@@H](CCC(=O)N[C@@H](CCC(=O)NCCCC[C@H](NC(=O)[C@@H](NC(=O)[C@H](Cc1ccccc1)NC(=O)[C@H](CC(=O)O)NC(=O)[C@H](CCC(N)=O)NC(=O)[C@H](C)NC(=O)[C@H](CCCNC(=N)N)NC(=O)[C@H](CCCNC(=N)N)NC(=O)[C@H](CC(C)C)NC(=O)[C@H](CC(=O)O)NC(=O)[C@H](CC(C)C)NC(=O)[C@H](Cc1ccc(O)cc1)NC(=O)[C@H](CCCCN)NC(=O)[C@H](CO)NC(=O)[C@H](Cc1ccc(O)cc1)NC(=O)[C@H](CC(=O)O)NC(=O)[C@H](CO)NC(=O)[C@@H](NC(=O)[C@H](Cc1ccccc1)NC(=O)[C@@H](NC(=O)CNC(=O)[C@H](Cc1c[nH]cn1)NC(=O)[C@H](CO)NC(=O)CCc1c[nH]cn1)[C@@H](C)O)[C@@H](C)O)C(C)C)C(=O)N[C@@H](Cc1c[nH]c2ccccc12)C(=O)N[C@@H](CC(C)C)C(=O)N[C@@H](CC(C)C)C(=O)N[C@@H](CO)C(=O)N[C@H](C(=O)O)[C@@H](C)O)C(=O)O)C(=O)O)C(=O)O)C(=O)O` [Example 9, N^ϵ24-[(4S)-4-[[(4S)-4-[[(4S)-4-[[(4S)-4-acetamido-4-carboxybutanoyl]amino]-4-carboxybutanoyl]amino]-4-carboxybutanoyl]amino]-4-carboxybutanoyl]-[Imp1, His3, Leu16, Lys24, Leu27, Ser28]-Glucagon] (Desaminohistidyl-SHGTFTSDYSKYLDLRRAQDFVK([γGlu-γGlu-γGlu-γGlu-Ac])WLLST-OH), the IC50 in data set [1] is 0.5 nM. In data set [2], this molecule came in with a recovery at 250 μM of 100%.
For `CC(=O)N[C@@H](CCC(=O)N[C@@H](CCC(=O)N[C@@H](CCC(=O)N[C@@H](CCC(=O)NCCCC[C@H](NC(=O)[C@@H](NC(=O)[C@H](Cc1ccccc1)NC(=O)[C@H](CCC(=O)O)NC(=O)[C@H](CCC(N)=O)NC(=O)[C@H](C)NC(=O)[C@H](CCCNC(=N)N)NC(=O)[C@H](CCCNC(=N)N)NC(=O)[C@H](CO)NC(=O)[C@H](CCC(=O)O)NC(=O)[C@H](CC(C)C)NC(=O)[C@H](Cc1ccc(O)cc1)NC(=O)[C@H](CCCCN)NC(=O)[C@H](CO)NC(=O)[C@H](Cc1ccc(O)cc1)NC(=O)[C@H](CC(=O)O)NC(=O)[C@H](CO)NC(=O)[C@@H](NC(=O)[C@H](Cc1ccccc1)NC(=O)[C@@H](NC(=O)CNC(=O)[C@H](Cc1c[nH]cn1)NC(=O)[C@H](CO)NC(=O)CCc1c[nH]cn1)[C@@H](C)O)[C@@H](C)O)C(C)C)C(=O)N[C@@H](Cc1c[nH]c2ccccc12)C(=O)N[C@@H](CC(C)C)C(=O)N[C@@H](CC(C)C)C(=O)N[C@@H](CO)C(=O)N[C@H](C(=O)O)[C@@H](C)O)C(=O)O)C(=O)O)C(=O)O)C(=O)O` [Example 6, N^ϵ24-[(4S)-4-[[(4S)-4-[[(4S)-4-[[(4S)-4-acetamido-4-carboxybutanoyl]amino]-4-carboxybutanoyl]amino]-4-carboxybutanoyl]amino]-4-carboxybutanoyl]-[Imp1, His3, Glu15, Glu21, Lys24, Leu27, Ser28]-Glucagon] (Desaminohistidyl-SHGTFTSDYSKYLESRRAQEFVK([γGlu-γGlu-γGlu-γGlu-Ac])WLLST-OH), the IC50 in data set [1] turned out to be 1.8 nM. In data set [2], the recovery at 250 μM was found to be 101%.
